Source: patent US20100249030A1, “ANTI-MITOTIC AGENT AND AURORA KINASE INHIBITOR COMBINATION AS ANTI-CANCER TREATMENT” (Schering Corporation, priority 2007, published 2010)
Like-named read-outs stand apart in the source and are kept apart here.

How the values were obtained:
cancer cell lines = conditions: cited from earlier work; for cell growth inhibition in combination with a taxane: VX-680 with taxotere, VE-645 with taxol, AZD1152 with taxol, AACR 2007 abstracts; for synergy with Taxotere: Hoover and Harding 2007
phos-MPM2 marker = assay: Exit from mitosis measured by phos-MPM2 marker after anti-mitotic induced arrest; format: cell-based; conditions: taxane and KSP induced arrest
Method: (§1) Single agent Aurora kinase inhibitors require a drug exposure time of 24 hours to induce endoreduplication in asynchronous cells.

[1] = tested on: HCT-116 colon cancer cells; assay: FACS (flow cytometric) analysis of endoreduplication (>4N DNA content) in HCT-116 colon cancer cells; format: cell-based; conditions: for endoreduplication: FACS at 24 hours; for exposure to Aurora kinase inhibitor required to induce endoreduplication (>4N DNA content) or cell death: asynchronous cells, 250 nM VX-680, 1000 nM COMPOUND X, 25 nM COMPOUND Z; for exposure to Aurora kinase inhibitor required to induce endoreduplication (>4N DNA content) or cell death / endoreduplication (>4N DNA content): single agent; for time required for Aurora inhibitor to induce endoreduplication, change after pre-treatment: following 16 hour pre-treatment with nocodazole, 250 nM VX-680, 1000 nM COMPOUND X or COMPOUND Z; for cell cycle distribution after release from anti-mitotic pretreatment: 16 hours pretreatment (5 nM taxotere / 0.4 μg/ml nocodazole), then released into DMSO; for cell cycle distribution after anti-mitotic pretreatment (labeled 0 hours): 16 hours pretreatment, 5 nM taxotere / 0.4 μg/ml nocodazole; for effect of anti-mitotic pre-treatment on the exposure time required for an Aurora kinase inhibitor to induce endoreduplication: 16 hour pre-treatment with the anti-mitotic agent (5 nM taxol, 10-50 nM KSP inhibitors)
Method: Asynchronous cells require 24 hour exposure to Aurora kinase inhibitors (such as 250 nM VX-680 or 1000 nM COMPOUND X. (Compound X is disclosed in WO 2008/057512, filed Nov. 6, 2007, Example 4-3 and Claim 70, Example 4-3 and Claim 70 and is shown below and it is represented in Formula H and Table 2, column 2, row 17 of the present application) or 25 nM COMPOUND Z (Compound Z is disclosed in PCT US2008/007295, filed Jun. 11, 2008, Example 76-2 and Claim 25, row 7, column 4 and it is represented in Table 13, compound 76-2 of the present application)) to induce endoreduplication (>4N DNA content) or cell death. For example, HCT-116 colon cancer cells were treated with 1000 nM COMPOUND X or 25 nM COMPOUND Z for the indicated times at which time the drug was washed off and replaced with new media see FIG. 1 and FIG. 8 respectively. Cells were analyzed by FACS after a total of 72 hours.
For example, HCT-116 colon cancer cells were treated with 1000 nM COMPOUND X or 25 nM COMPOUND Z for the indicated times at which time the drug was washed off and replaced with new media see FIG. 2 and FIG. 9 respectively. Cells were analyzed by FACS after a total of 24 hours.
For example, HCT-116 colon cancer cells were treated for 16 hours with DMSO (FIG. 3) or 5 nM taxotere and then exposed to DMSO or 1000 nM COMPOUND X or 25 nM COMPOUND Z for 4, 8, and 24 hours. After 4 or 8 hours, COMPOUND X or COMPOUND Z was washed off and new media was added to the cells. Cells were harvested after 24 hours and analyzed by FACS (see FIG. 4 and FIG. 11 respectively). Following DMSO pretreatment, DMSO had no effect on cell cycle distribution. […] Endoreduplication was observed even when COMPOUND X or COMPOUND Z exposure was as little as 4 hours.
However, following a 16 hour pre-treatment with nocodazole for incrusting, the time required for an Aurora inhibitor (such as 250 nM VX-680 or 1000 nM COMPOUND X or COMPOUND Z) to induce endoreduplication was […]. For example, HCT-116 colon cancer cells were treated for 16 hours with 0.4 μg/ml nocodazole see FIG. 5, and then exposed to DMSO or 1000 nM COMPOUND X or COMPOUND Z for 4, 8 or 24 hours. After 4 or 8 hours, COMPOUND X or COMPOUND Z was washed off and new media was added to the cells. Cells were harvested after 24 hours and analyzed by FACS.
For example, HCT-116 colon cancer cells that were not pretreated, were treated with 5 nM taxotere plus DMSO or 1000 nM COMPOUND X or COMPOUND Z concurrently for 4, 8, or 24 hours. At the indicated time the media was removed and replaced with new media and taxotere was added back into these cells. Cells were harvested after 24 hours and analyzed by FACS see FIG. 6 or FIG. 12 respectively.

[2] = tested on: HCT-116 colon cancer cells; assay: as above; format: cell-based; conditions: after 16 hours 10 nM Ispinesib pretreatment; 1000 nM Compound X / 25 nM Compound Z
[3] = tested on: phosphorylation of Histone H3 (at serine-10); assay: Inhibition of phosphorylation of Histone H3 (serine-10) stimulated by anti-mitotic agents; format: cell-based; conditions: stimulated by taxanes, KSP inhibitor, and nocodazole
Method: as §1

[4] = tested on: cells arrested with taxol, monastrol or nocodazole; conditions: Morrow et al. 2005, Ditchfield et al. 2003, cited from earlier work
[5] = 24 hour exposure, FACS after a total of 24 hours, 250 nM VX-680 / 1000 nM Compound X / 25 nM Compound Z
[6] = exposure less than 24 hours then washed off, FACS after a total of 24 hours, 250 nM VX-680 / 1000 nM Compound X / 25 nM Compound Z

## CCN(CCCOc1ccc2c(Nc3cc(CC(=O)Nc4cccc(F)c4)n[nH]3)ncnc2c1)CCOP(=O)(O)O [AZD1152, reference compound]
Cancer cell lines
  cell growth inhibition in combination with a taxane: showed enhanced cell growth inhibition
phos-MPM2 marker
  exit from mitosis, as measured by phos-MPM2 marker: accelerated the exit from mitosis

## CSc1cn2c(-c3cn[nH]c3)cnc2c(Nc2cc(C)ns2)n1 [Compound X]
[1]; 16 hours 5 nM taxotere pretreatment, then 1000 nM Compound X or 25 nM Compound Z for 4, 8 and 24 hours
  endoreduplication: induced endoreduplication
[1]; 16 hours 10 nM Ispinesib (KSP inhibitor) pretreatment, then 1000 nM Compound X or 25 nM Compound Z for 4, 8 and 24 hours
  endoreduplication: induced endoreduplication
[1]; 16 hours DMSO pretreatment, then 1000 nM COMPOUND X or 25 nM COMPOUND Z for 4, 8 and 24 hours
  endoreduplication: induced endoreduplication, but only when COMPOUND X or COMPOUND Z exposure was 24 hours
[1]; 16 hours nocodazole (0.4 μg/ml) pretreatment, then 4- or 8-hour exposure to Aurora kinase inhibitor
  endoreduplication: insufficient to induce endoreduplication
[1]; 16 hours nocodazole (0.4 μg/ml) pretreatment, then 24 hour exposure to Aurora kinase inhibitor
  endoreduplication: induced endoreduplication
[1]; Aurora kinase inhibitor given at the same time as 5 nM taxotere, 4 hour exposure
  endoreduplication: not sufficient to induce endoreduplication
[1]; Aurora kinase inhibitor given at the same time as 5 nM taxotere, no pretreatment
  exposure needed to induce endoreduplication: 24 h
[1]; after 16 hours 5 nM taxotere pretreatment, 1000 nM Compound X / 25 nM Compound Z
  Aurora kinase inhibitor exposure at which endoreduplication was still observed (as little as): ≤ 4 h
[1]
  exposure to Aurora kinase inhibitor required to induce endoreduplication (>4N DNA content) or cell death: 24 h
  time required for Aurora inhibitor to induce endoreduplication, change after pre-treatment: not reduced
[1]; [5]
  endoreduplication (>4N DNA content): sufficient to induce endoreduplication
[1]; drug exposure for 24, 48, or 72 hours, FACS after a total of 72 hours, 1000 nM Compound X / 25 nM Compound Z
  endoreduplication (>4N DNA content): resulted in the accumulation of cells that underwent endoreduplication
[1]; exposure less than 24 hours then drug washed off, FACS after a total of 72 hours, 1000 nM Compound X / 25 nM Compound Z
  endoreduplication (>4N DNA content): insufficient to induce endoreduplication
[1]; [6]
  endoreduplication (>4N DNA content): insufficient to induce endoreduplication
phos-MPM2 marker
  exit from mitosis, as measured by phos-MPM2 marker: accelerated the exit from mitosis
[2]
  Aurora kinase inhibitor exposure at which endoreduplication was still observed (as little as): ≤ 4 h
[3]
  inhibition of phosphorylation of Histone H3 (at serine-10): capable of inhibiting phosphorylation of Histone H3

## Cc1cc(Nc2cc(N3CCN(C)CC3)nc(Sc3ccc(NC(=O)C4CC4)cc3)n2)n[nH]1 [MK-0457]
Cancer cell lines; long-term survival assays
  synergy with Taxotere: synergy occurred with simultaneous exposure
Cancer cell lines; short-term viability assays
  synergy with Taxotere: synergy occurs with sequential and not simultaneous exposure

## CC(=O)O[C@@]12CO[C@@H]1C[C@H](O)[C@@]1(C)C(=O)[C@H](O)C3=C(C)[C@@H](OC(=O)[C@H](O)[C@@H](NC(=O)OC(C)(C)C)c4ccccc4)C[C@@](O)([C@@H](OC(=O)c4ccccc4)[C@H]21)C3(C)C [Taxotere, docetaxel, reference compound]
[1]
  cell cycle distribution after release from anti-mitotic pretreatment: exited mitosis
  cell cycle distribution after anti-mitotic pretreatment (labeled 0 hours): accumulated in mitosis (4N DNA)

## Cc1cc(Nc2cc(N3CCN(C)CC3)nc(Sc3ccc(NC(=O)C4CC4)cc3)n2)n[nH]1 [VX-680, reference compound]
Cancer cell lines
  cell growth inhibition in combination with a taxane: showed enhanced cell growth inhibition
[1]
  exposure to Aurora kinase inhibitor required to induce endoreduplication (>4N DNA content) or cell death: 24 h
  time required for Aurora inhibitor to induce endoreduplication, change after pre-treatment: not reduced
[1]; [5]
  endoreduplication (>4N DNA content): sufficient to induce endoreduplication
[1]; [6]
  endoreduplication (>4N DNA content): insufficient to induce endoreduplication
phos-MPM2 marker
  exit from mitosis, as measured by phos-MPM2 marker: accelerated the exit from mitosis
[3]
  inhibition of phosphorylation of Histone H3 (at serine-10): capable of inhibiting phosphorylation of Histone H3

## COc1cc2c(Nc3ccc(NC(=O)c4ccccc4)cc3)ncnc2cc1OCCCN1CCOCC1 [ZM4477439]
[4]; arrest induced by nocodazole
  mitotic arrest: not by nocodazole
[4]; arrest induced by taxol
  mitotic arrest: abrogated mitotic arrest induced by taxol

## COC(=O)Nc1nc2ccc(C(=O)c3cccs3)cc2[nH]1 [nocodazole, reference compound]
[1]
  effect of anti-mitotic pre-treatment on the exposure time required for an Aurora kinase inhibitor to induce endoreduplication: did not result in the same reduction in required exposure time
  cell cycle distribution after release from anti-mitotic pretreatment: exited mitosis
  cell cycle distribution after anti-mitotic pretreatment (labeled 0 hours): accumulated in mitosis (4N DNA)

## CC[C@]1(O)C[C@H]2CN(CCc3c([nH]c4ccccc34)[C@@](C(=O)OC)(c3cc4c(cc3OC)N(C=O)[C@H]3[C@@](O)(C(=O)OC)[C@H](OC(C)=O)[C@]5(CC)C=CCN6CC[C@]43[C@@H]65)C2)C1 [vincristine, reference compound]
[1]
  effect of anti-mitotic pre-treatment on the exposure time required for an Aurora kinase inhibitor to induce endoreduplication: did not result in the same reduction in required exposure time
